Values quoted from earlier work, collected in patent US7871609B2, “Supplements for pain management” (priority 2007, dated 2011).
Structures can show the parent of a compound that is named as a salt. Where two headings read alike, the source gives them in different places. Blank lines part the entries; values can stand above or below the compound they belong to.

Assays:
spasmodic dysmenorrhea = conditions: 556 girls aged 12-21 yr, oral daily dose of 100 mg for 90 days
[1] = tested on: osteoarthritis (OA) of the knee
[2] = tested on: bilateral olfactory bulbectomy (OB) model
[3] = tested on: cells in tissue culture that express PMP22 mutants; conditions: cells expressing PMP22 mutants
forced swimming test = conditions: chronic treatment 14 days, 1.25, 2.5, 5 and 10 mg/kg, p.o.
[4] = tested on: chronically stressed rats
[5] = tested on: NF-kappaB signalling in human articular chondrocytes
[6] = tested on: homocysteine-induced atherosclerosis; conditions: day 14, homocysteine thiolactone intake, supplemented versus deficient rats
[7] = tested on: cultured cerebellar granule neurons (CGNs); conditions: exposure to amprolium

Structure (SMILES): Cc1ncc(C[n+]2csc(CCO)c2C)c(N)n1 [Vitamin B1, thiamine]
cases of Baker's cyst cured without recurrence (tumors or masses; thiamin alone injected): 13 out of 15
cases of submandibular gland cyst cured without recurrence (tumors or masses; thiamin alone injected): Two
completely cured (spasmodic dysmenorrhea): 87%
no effect whatsoever (spasmodic dysmenorrhea): 5%
relieved (pain almost nil to reduced) (spasmodic dysmenorrhea): 8%

Structure (SMILES): O=C(O)Cc1ccccc1Nc1c(Cl)cccc1Cl [diclofenac]
mean Lequesne's Algofunctional Index (LFI) at end ([1]; after the 6-week observation period): 9.4
mean Lequesne's Algofunctional Index (LFI) at start ([1]; before the 6-week observation period): 12.5
tolerability judgment ([1]; majority of patients): very good or good
global judgment of efficacy by physician, at least good ratings ([1]; share of patients, 6 weeks): 37.2%

IL-1beta-induced down-regulation of collagen type II and beta1-integrin receptor expression [5]: reversed
IL-1beta-induced stimulation of protein kinase B Akt [5]: inhibited
Structure (SMILES): COc1cc(/C=C/C(=O)CC(=O)/C=C/c2ccc(O)c(OC)c2)ccc1O [Curcumin, diferuloylmethane]
motor performance (Trembler-J mouse model; mouse, in vivo): improved motor performance
myelinated axons in sciatic nerves (Trembler-J mouse model; mouse, in vivo): increased number and size
neuropathy phenotype (Trembler-J mouse model; oral administration, dose-dependent): partially mitigates the severe neuropathy phenotype
percentage of apoptotic Schwann cells (Trembler-J mouse model; sciatic nerves): significantly decreases
OB-induced behavioral abnormalities (hyperactivity in open field, deficits in step-down passive avoidance) ([2]; chronic administration p.o.): reversed
OB-induced changes of 5-HT, NA, 5-HIAA and DOPAC in the hippocampus ([2]; rat, in vivo): completely reversed
OB-induced decrease in 5-HT, NA and DA levels in the frontal cortex ([2]; rat, in vivo): also reversed
apoptosis [3]: reduced apoptosis
immobility time (forced swimming test): reduced the immobility time
hippocampal neurogenesis ([4]; 10 and 20 mg/kg, p.o., 20 days chronic stress): increased hippocampal neurogenesis
5-HT(1A) mRNA and BDNF protein levels in the hippocampal subfields ([4]; chronic stress): significantly prevented the stress-induced decrease
IL-1beta-induced NF-kappaB activation ([5]; via inhibition of IkappaBalpha phosphorylation and degradation, p65 phosphorylation and nuclear translocation): suppressed
expression of NF-kappaB targets COX-2 and MMP-9 ([5]; western blotting): down-regulation

Structure (SMILES): Cc1ncc(CO)c(CO)c1O [vitamin B-6, pyridoxine]
aortic lesions [6]: not in vitamin B6-supplemented rats

Structure (SMILES): Cc1ncc(C[n+]2csc(CCO)c2C)c(N)n1 [thiamin HCl]
osteosarcoma circumference before treatment (tumors or masses; one case, pathology-confirmed): 30 cm
osteosarcoma circumference after treatment (tumors or masses; subcutaneous perfusion of 300 once only, within 2 days): 20 cm
equivalent reduction in osteosarcoma volume (tumors or masses; within 2 days): 50-75%

Structure (SMILES): CN(C)CCCN1c2ccccc2CCc2ccccc21 [imipramine]
hippocampal neurogenesis ([4]; 10 mg/kg, i.p.): increased hippocampal neurogenesis

Structure (SMILES): CCCc1ncc(C[n+]2ccccc2C)c(N)n1 [amprolium]
effect on cerebellar granule neurons [7]: caused apoptosis and the generation of reactive oxygen species
